From ChEMBL document CHEMBL1201862, “PubChem BioAssay data set” (2004)
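Protocol summary: plate cells (96-well), add compound at 5 concentrations, incubate 48 h, interpolate endpoints linearly. Here, GI50 denotes the concentration required for 50% inhibition of growth.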 Activity calls are given as the source filed them. Cut-off read from the data, not from the text of the source: active = GI50 up to about 1.1 µM and inactive = higher.

How the values were obtained:
Assay in all cases: NCI tumour cell line growth inhibition, 48 h
[1] = test system: A549
[2] = test system: KM12
[3] = test system: NCI-H226
[4] = test system: SK-OV-3
[5] = test system: NCI/ADR-RES
[6] = test system: HOP-62
[7] = test system: T47D
[8] = test system: U-251
[9] = test system: NCI-H23
[10] = test system: SF-539
[11] = test system: K562
[12] = test system: Hs-578T
[13] = test system: 786-0
[14] = test system: MCF7
[15] = test system: SK-MEL-2
[16] = test system: RXF 393
[17] = test system: UO-31
[18] = test system: MDA-MB-435
[19] = test system: CCRF-CEM
[20] = test system: NCI-H460
[21] = test system: TK-10
[22] = test system: DU-145
[23] = test system: M14
[24] = test system: OVCAR-5
[25] = test system: SN12C
[26] = test system: IGROV-1
[27] = test system: Malme-3M
[28] = test system: HCT-116
[29] = test system: HCT-15
[30] = test system: COLO 205
[31] = test system: A498
[32] = test system: HT-29
[33] = test system: PC-3
[34] = test system: SF-268
[35] = test system: MDA-N
[36] = test system: UACC-257
[37] = test system: RPMI-8226
[38] = test system: OVCAR-4
[39] = test system: HOP-92
[40] = test system: HL-60
[41] = test system: BT-549
[42] = test system: NCI-H522
[43] = test system: SK-MEL-5
[44] = test system: OVCAR-3
[45] = test system: SF-295
[46] = test system: MOLT-4
[47] = test system: SR
[48] = test system: ACHN
[49] = test system: SW-620
[50] = test system: OVCAR-8
[51] = test system: SK-MEL-28
[52] = test system: MDA-MB-231
[53] = test system: SNB-19
[54] = test system: HCC 2998
[55] = test system: UACC-62
[56] = test system: EKVX
[57] = test system: CAKI-1
[58] = test system: LOX IMVI
[59] = test system: SNB-75

## OC(CN1CCCCC1)c1ccc(/C=C/c2ccc(Cl)cc2)cc1 (centres undefined)
[1]
  GI50: > 100 µM (inactive)
[2]
  GI50: 17.2 µM (inactive)
[3]
  GI50: > 100 µM (inactive)
[4]
  GI50: > 100 µM (inactive)
[5]
  GI50: > 100 µM (inactive)
[6]
  GI50: 94.8 µM (inactive)
[7]
  GI50: > 100 µM (inactive)
[8]
  GI50: > 100 µM (inactive)
[9]
  GI50: > 100 µM (inactive)
[10]
  GI50: 43.6 µM (inactive)
[11]
  GI50: 37.3 µM (inactive)
[12]
  GI50: 50.1 µM (inactive)
[13]
  GI50: 56.5 µM (inactive)
[14]
  GI50: > 100 µM (inactive)
[15]
  GI50: 27.2 µM (inactive)
[16]
  GI50: > 100 µM (inactive)
[17]
  GI50: 50.4 µM (inactive)
[18]
  GI50: 54.3 µM (inactive)
[19]
  GI50: 70.5 µM (inactive)
[20]
  GI50: 54.6 µM (inactive)
[21]
  GI50: > 100 µM (inactive)
[22]
  GI50: > 100 µM (inactive)
[23]
  GI50: 19.9 µM (inactive)
[24]
  GI50: 31.8 µM (inactive)
[25]
  GI50: > 100 µM (inactive)
[26]
  GI50: 26.2 µM (inactive)
[27]
  GI50: 60.3 µM (inactive)
[28]
  GI50: 38.9 µM (inactive)
[29]
  GI50: 25.2 µM
[30]
  GI50: 16.7 µM (inactive)
[31]
  GI50: 40 µM (inactive)
[32]
  GI50: 12 µM (inactive)
[33]
  GI50: 90.6 µM (inactive)
[34]
  GI50: > 100 µM (inactive)
[35]
  GI50: 56.9 µM (inactive)
[36]
  GI50: 21.6 µM (inactive)
[37]
  GI50: 27.6 µM (inactive)
[38]
  GI50: 83.6 µM (inactive)
[39]
  GI50: 50.6 µM (inactive)
[40]
  GI50: 6.14 µM (inactive)
[41]
  GI50: > 100 µM (inactive)
[42]
  GI50: 21.3 µM (inactive)
[43]
  GI50: 22.3 µM (inactive)
[44]
  GI50: 89.1 µM (inactive)
[45]
  GI50: 40.7 µM (inactive)
[46]
  GI50: > 100 µM (inactive)
[47]
  GI50: > 100 µM (inactive)
[48]
  GI50: > 100 µM (inactive)
[49]
  GI50: 46.9 µM (inactive)
[50]
  GI50: > 100 µM (inactive)
[51]
  GI50: 22.3 µM (inactive)
[52]
  GI50: > 100 µM (inactive)
[53]
  GI50: > 100 µM (inactive)
[54]
  GI50: 46 µM (inactive)
[55]
  GI50: 24.3 µM (inactive)
[56]
  GI50: > 100 µM (inactive)

## CCCS(=O)OC1C(C2COC(C)(C)O2)OC2OC(C)(C)OC21 (centres undefined)
[1]
  GI50: 20.9 µM (inactive)
[2]
  GI50: 13.1 µM (inactive)
[3]
  GI50: 21.7 µM (inactive)
[4]
  GI50: 22 µM (inactive)
[5]
  GI50: 17.5 µM (inactive)
[6]
  GI50: 13.6 µM (inactive)
[7]
  GI50: 20.9 µM (inactive)
[8]
  GI50: 8.26 µM (inactive)
[9]
  GI50: 7.26 µM (inactive)
[10]
  GI50: 10.3 µM (inactive)
[11]
  GI50: 5.65 µM (inactive)
[12]
  GI50: 4.46 µM (inactive)
[57]
  GI50: 11.6 µM (inactive)
[13]
  GI50: 13.2 µM (inactive)
[14]
  GI50: 12.4 µM (inactive)
[15]
  GI50: 16.1 µM (inactive)
[16]
  GI50: 9.59 µM (inactive)
[17]
  GI50: 15 µM (inactive)
[18]
  GI50: 6.31 µM (inactive)
[19]
  GI50: 3.15 µM (inactive)
[20]
  GI50: 22.8 µM (inactive)
[21]
  GI50: 16.2 µM (inactive)
[22]
  GI50: 20.2 µM (inactive)
[23]
  GI50: 8.61 µM (inactive)
[24]
  GI50: 12.2 µM (inactive)
[25]
  GI50: 12.5 µM (inactive)
[26]
  GI50: 14.3 µM (inactive)
[27]
  GI50: 9.59 µM (inactive)
[28]
  GI50: 6.07 µM (inactive)
[29]
  GI50: 13.7 µM
[30]
  GI50: 11.7 µM (inactive)
[31]
  GI50: 32.1 µM (inactive)
[32]
  GI50: 3.89 µM (inactive)
[33]
  GI50: 2.87 µM (inactive)
[34]
  GI50: 17.9 µM (inactive)
[35]
  GI50: 15.1 µM (inactive)
[36]
  GI50: 13.6 µM (inactive)
[37]
  GI50: 2.88 µM (inactive)
[38]
  GI50: 15.2 µM (inactive)
[39]
  GI50: 5.87 µM (inactive)
[41]
  GI50: 12.1 µM (inactive)
[42]
  GI50: 9.27 µM (inactive)
[58]
  GI50: 6.43 µM (inactive)
[43]
  GI50: 13.2 µM (inactive)
[44]
  GI50: 15.1 µM (inactive)
[45]
  GI50: 15.1 µM (inactive)
[46]
  GI50: 1.63 µM (inactive)
[47]
  GI50: 0.497 µM (active)
[48]
  GI50: 13.7 µM (inactive)
[59]
  GI50: 12.9 µM (inactive)
[49]
  GI50: 8.49 µM (inactive)
[50]
  GI50: 10.5 µM (inactive)
[51]
  GI50: 14.5 µM (inactive)
[52]
  GI50: 13.1 µM (inactive)
[53]
  GI50: 15 µM (inactive)
[54]
  GI50: 16.5 µM (inactive)
[55]
  GI50: 12.1 µM (inactive)
[56]
  GI50: 16.4 µM (inactive)
